In patent EP4793281A1, “ORGAN FIBROSIS-RELATED MICROPEPTIDE (OFMP) AND USE THEREOF” (Nanjing Anji Biological Technology Co., Ltd., priority 2023, dated 2025):

How the values were obtained:
Type in all cases: cell-based
[1] = tested on: Human renal proximal tubular cells HK2; experiment: inhibitory effect in human renal fibrosis cell model (TGFβ1-stimulated), qPCR of fibrosis gene mRNA; details: for therapeutic effect on renal fibrosis: overall conclusion from the HK2 cell model; for difference from the positive drug hydronidone group: renal fibrosis cells, hydronidone 20µmol
Description: (§1) In embodiments, the method for detecting the inhibitory effect of micropeptide OFMP in a fibrotic cell model by the real-time fluorescence quantitative PCR method comprises: • counting and inoculating human hepatic stellate cells LX-2, human non-small cell lung cancer cell line A549, and human renal proximal tubular cells HK2 to culture plates; • except for the control group, adding 10nmol of recombinant human TGFβ1 stimulating factor to stimulate continuously for 24 h; • extracting and collecting the total RNA of the cell samples with a TRIzol reagent, and then reverse-transcribing the extracted total RNA using a reverse transcription reagent, and performing qPCR reaction using the qPCR premix solution; and • detecting mRNA expression levels of genes Colla1 and α-SMA using a real-time fluorescence quantitative PCR instrument.
(§2) According to the TRIzol reagent manual of Life Invitrogen, the total RNA of the cell samples was extracted and collected. Then, the purity and concentration of the extracted RNA was quantified by a NanoDrop 2000 ultra micro spectrophotometer. The integrity of the extracted RNA was inspected and ensured by agarose gel electrophoresis. A reverse transcription reagent HiScript® III RT SuperMix for qPCR (+ genomic DNA wiper) was used to perform reverse transcription on the extracted total RNA and a qPCR premix liquid ChamQ SYBR qPCR Master Mix was used to perform qPCR reaction.
(§3) After the above components were mixed well, the following procedure proceeded: initial denaturation 95°C 30s, 95°C 10s, 60°C 30s, 50 cycles. After the qPCR reaction was completed, the Cq value of each sample well was collected. The maximum error of the Cq values among the three duplicate wells of each sample should be no more than 0.5 to ensure data accuracy.
(§4) Human renal proximal tubular cells HK2 were cultured in a 37°C 5% CO2 cell incubator until the cell density was above 80%, and the cells were digested and collected by trypsin, and centrifuged. After the supernatant was discarded, the cells were counted by a cell counter, inoculated to six-well cell culture plates, and put into a 37°C 5% CO2 cell incubator to continue the culturing. The culture medium was sucked out after the cells were cultured for 24 h, a 2‰ DMSO solvent was added as a negative control, 20µmol of hydronidone was added as a positive control, 40µmol, 10µmol, 2.5µmol, 625nmol and 156nmol of the synthetic peptide OFMP were added in the equal proportion for other groups as administration groups, 10nmol of recombinant human TGFβ1 stimulating factor was added to other groups except the control groups half an hour later to continuously stimulate for 24 h, and the mRNA expression levels of genes Colla1, TGFβ1 and CTGF in OFMP3178, and the mRNA expression levels of genes Colla1 and α-SMA in OFMP2067 and OFMP1080 were detected.

[2] = tested on: Human non-small cell lung cancer cell line A549; experiment: inhibitory effect in human pulmonary fibrosis cell model (TGFβ1-stimulated), qPCR of fibrosis gene mRNA; details: for therapeutic effect on pulmonary fibrosis: overall conclusion from the A549 cell model; for difference from the positive drug Nintedanib group: pulmonary fibrosis cells, Nintedanib 2µmol
Description: as §1, §2, §3
as §4, with “non-small cell lung cancer cell line A549 was” for “renal proximal tubular cells HK2 were”, “2µmol” for “20µmol”, “Nintedanib” for “hydronidone”

[3] = tested on: human hepatic stellate cells LX-2; experiment: inhibitory effect in human liver fibrosis cell model (TGFβ1-stimulated), qPCR of fibrosis gene mRNA; details: for difference from the positive drug hydronidone group: liver fibrosis cells, hydronidone 20µmol; for therapeutic effect on liver fibrosis: overall conclusion from the LX-2 cell model
Description: as §1, §2, §3
as §4, with “Human hepatic stellate cells LX-2, human non-small cell lung cancer cell line A549, and human” for “Human”

[4] = different concentrations (40µmol to 156nmol), 10nmol TGFβ1, 24 h, compared with the model group

OFMP2067 (MHLDHSDPITRDHMGSVMAQVRQKLFQFLQAEPHNSLGKAARRLSLMLHGLVTPSLP)
mRNA expression level of gene Colla1 in renal fibrosis cells [1, 4]: significantly decreased | mRNA expression level of gene α-SMA in renal fibrosis cells [1, 4]: significantly decreased | therapeutic effect on renal fibrosis [1]: good therapeutic effect | difference from the positive drug hydronidone group [1]: a significant difference | mRNA expression level of gene Colla1 in renal fibrosis cells ([1]; treatment condition 40µmol-24h): most significant decrease | mRNA expression level of gene α-SMA in renal fibrosis cells ([1]; treatment condition 40µmol-24h): most significant decrease | mRNA expression level of gene Colla1 in pulmonary fibrosis cells [2, 4]: significantly decreased | mRNA expression level of gene α-SMA in pulmonary fibrosis cells [2, 4]: significantly decreased | therapeutic effect on pulmonary fibrosis [2]: good therapeutic effect | difference from the positive drug Nintedanib group [2]: a significant difference | mRNA expression level of gene Colla1 in pulmonary fibrosis cells ([2]; treatment condition 40µmol-24h): most significant decrease | mRNA expression level of gene α-SMA in pulmonary fibrosis cells ([2]; treatment condition 40µmol-24h): most significant decrease | mRNA expression level of gene Colla1 in liver fibrosis cells [3, 4]: significantly decreased | mRNA expression level of gene α-SMA in liver fibrosis cells [3, 4]: significantly decreased | difference from the positive drug hydronidone group [3]: a significant difference | therapeutic effect on liver fibrosis [3]: good therapeutic effect | mRNA expression level of gene Colla1 in liver fibrosis cells ([3]; treatment condition 40µmol-24h): most significant decrease | mRNA expression level of gene α-SMA in liver fibrosis cells ([3]; treatment condition 40µmol-24h): most significant decrease

OFMP1080 (MRHRLVSLSVTSCVTPAAGTRRGSAGAVGTNTGRGGPPPHALRASGEQSPAQGVS)
mRNA expression level of gene Colla1 in renal fibrosis cells [1, 4]: significantly decreased | therapeutic effect on renal fibrosis [1]: good therapeutic effect | mRNA expression level of gene Colla1 in renal fibrosis cells ([1]; treatment condition 40µmol-24h): most significant decrease | mRNA expression level of gene Colla1 in pulmonary fibrosis cells [2, 4]: significantly decreased | therapeutic effect on pulmonary fibrosis [2]: good therapeutic effect | mRNA expression level of gene Colla1 in pulmonary fibrosis cells ([2]; treatment condition 10µmol-24h): most significant decrease | mRNA expression level of gene Colla1 in liver fibrosis cells [3, 4]: significantly decreased | difference from the positive drug hydronidone group [3]: not a significant difference | therapeutic effect on liver fibrosis [3]: good therapeutic effect | mRNA expression level of gene Colla1 in liver fibrosis cells ([3]; treatment condition 40µmol-24h): most significant decrease | mRNA expression level of gene α-SMA in liver fibrosis cells ([3]; treatment condition 40µmol-24h): most significant decrease

OFMP3178 (MSLSICTLCLLPRRQEYCILKVPGLLFFLITNDLGSSDHSCLPRVKVPFKALLPGEL)
mRNA expression level of gene CTGF in renal fibrosis cells [1, 4]: significantly decreased | mRNA expression level of gene Colla1 in renal fibrosis cells [1, 4]: significantly decreased | mRNA expression level of gene TGFβ1 in renal fibrosis cells [1, 4]: significantly decreased | therapeutic effect on renal fibrosis [1]: good therapeutic effect | difference from the positive drug hydronidone group [1]: a significant difference | mRNA expression level of gene CTGF in renal fibrosis cells ([1]; treatment condition 40µmol-24h): most significant decrease | mRNA expression level of gene Colla1 in renal fibrosis cells ([1]; treatment condition 40µmol-24h): most significant decrease | mRNA expression level of gene TGFβ1 in renal fibrosis cells ([1]; treatment condition 40µmol-24h): most significant decrease | mRNA expression level of gene CTGF in pulmonary fibrosis cells [2, 4]: significantly decreased | mRNA expression level of gene Colla1 in pulmonary fibrosis cells [2, 4]: significantly decreased | mRNA expression level of gene TGFβ1 in pulmonary fibrosis cells [2, 4]: significantly decreased | therapeutic effect on pulmonary fibrosis [2]: good therapeutic effect | difference from the positive drug Nintedanib group [2]: a significant difference | mRNA expression level of gene CTGF in pulmonary fibrosis cells ([2]; treatment condition 40µmol-24h): most significant decrease | mRNA expression level of gene Colla1 in pulmonary fibrosis cells ([2]; treatment condition 40µmol-24h): most significant decrease | mRNA expression level of gene TGFβ1 in pulmonary fibrosis cells ([2]; treatment condition 40µmol-24h): most significant decrease | mRNA expression level of gene CTGF in liver fibrosis cells [3, 4]: significantly decreased | mRNA expression level of gene Colla1 in liver fibrosis cells [3, 4]: significantly decreased | difference from the positive drug hydronidone group [3]: a significant difference | therapeutic effect on liver fibrosis [3]: good therapeutic effect | mRNA expression level of gene CTGF in liver fibrosis cells ([3]; treatment condition 40µmol-24h): most significant decrease | mRNA expression level of gene Colla1 in liver fibrosis cells ([3]; treatment condition 40µmol-24h): most significant decrease
